This passage reports IC50 results from patent US20100204230A1, “PIPERAZINE DERIVATIVES FOR TREATMENT OF AD AND RELATED CONDITIONS” (priority 2007, published 2010).

The target of this assay is T1, γ-secretase (Aβ(1-42) production in SH-SY5Y neuroblastoma cells overexpressing SPA4CT) (Homo sapiens, UniProt P49768).
T1 construct: Human SH-SY5Y neuroblastoma cells overexpressing the direct 7-secretase substrate SPA4CT; endogenous in cells; host or cells: Human SH-SY5Y neuroblastoma cells (stably overexpressing the substrate SPA4CT, induced with sodium butyrate)
As to the kind of experiment: Cell-based γ-secretase assay, Aβ(1-42) inhibition. Conditions: overnight incubation, Meso Scale detection of Aβ(42). As to the method: Cell-Based γ-Secretase Assay
Human SH-SY5Y neuroblastoma cells overexpressing the direct 7-secretase substrate SPA4CT were induced with sodium butyrate (10 mM) for 4 hours prior to plating. Cells were plated at 35,000 cells/well/100 μl in 96-well plates in phenol red-free MEM/10% FBS, 50 mM HEPES, 1% Glutamine and incubated for 2 hrs at 37° C., 5% CO2.
Compounds for testing were diluted into Me2SO to give a ten point dose-response curve. Typically 10 μl of these diluted compounds in Me2SO were further diluted into 182 μl dilution buffer (phenol red-free MEM/10% FBS, 50 mM HEPES, 1% Glutamine) and 10 μl of each dilution was added to the cells in 96-well plates (yielding a final Me2SO concentration of 0.5%). Appropriate vehicle and inhibitor controls were used to determine the window of the assay.
After incubation overnight at 37° C., 5% CO2, 25 μl and 50 μl media were transferred into a standard Meso avidin-coated 96-well plate for detection of Aβ(40) and Aβ(42) peptides, respectively. 25 μl Meso Assay buffer (PBS, 2% BSA, 0.2% Tween-20) was added to the Aβ(40) wells followed by the addition of 25 μl of the respective antibody premixes to the wells: • Aβ(40) premix: 1 μg/ml ruthenylated G2-10 antibody, 4 μg/ml biotinylated 4G8 antibody diluted in Origen buffer • Aβ(42) premix: 1 μg/ml ruthenylated G2-11 antibody, 4 μg/ml biotinylated 4G8 antibody diluted in Origen buffer
(Biotinylated 4G8 antibody supplied by Signet Pathology Ltd; G2-10 and G2-11 antibodies supplied by Chemicon)
After overnight incubation of the assay plates on a shaker at 4° C., the Meso Scale Sector 6000 Imager was calibrated according to the manufacturer's instructions. After washing the plates 3 times with 150 μl of PBS per well, 150 μl Meso Scale Discovery read buffer was added to each well and the plates were read on the Sector 6000 Imager according to the manufacturer's instructions.
LD50 and IC50 values for inhibition of Aβ(40) and Aβ(42) were calculated by nonlinear regression fit analysis using the appropriate software (eg. Excel fit). The total signal and the background were defined by the corresponding Me2SO and inhibitor controls.

Regarding `CCN(CC)c1ccc(Nc2ccnc(N3CCN(c4ccc(OC)cc4)CC3)n2)c(C)c1` [Example 3, N,N-Diethyl-N-{2-[4-(4-methoxy-phenyl)-piperazin-1-yl]-pyrimidin-4-yl}-2-methyl-benzene-1,4-diamine], the IC50 (commonly the point on the concentration scale where inhibition reaches its midpoint) lay in the range of 1000 to 3000 nM.
On to `CCN(CC)c1ccc(Nc2ccnc(N3CCN(c4ccc(OC)nc4)CC3)n2)c(C)c1` [Example 5], for which the IC50 fell in the range of 1000 to 3000 nM.
Under `COc1ccc(N2CCN(c3ncc(F)c(Nc4cc(C(C)(C)C)ccc4C)n3)CC2(C)C)cc1` [Example 8] stands 500 to 1000 nM; under `CCN(CC)c1ccc(Nc2ccnc(N3CCN(c4ccc(OC)cc4)C(C)C3)n2)c(C)c1` (stereo not shown) [Example 10, N4,N4-diethyl-N1-{2-[4-(4-methoxyphenyl)-3-methylpiperazin-1-yl]pyrimidin-4-yl}-2-methylbenzene-1,4-diamine], 500 to 1000 nM.
Turning to `COc1ccc(N2CCN(c3nccc(Nc4cc(OC)ccc4C)n3)CC2(C)C)cc1` [Example 11, N-(5-methoxy-2-methylphenyl)-2-[4-(4-methoxyphenyl)-3,3-dimethylpiperazin-1-yl]pyrimidin-4-amine], the half-inhibitory concentration (IC50) was in the range of 1000 to 3000 nM.
For `CCN(CC)c1ccc(Nc2nc(N3CCN(c4ccc(OC)cc4)C(C)(C)C3)ncc2C)c(C)c1` [Example 14, N4,N4-diethyl-N1-{2-[4-(4-methoxyphenyl)-3,3-dimethylpiperazin-1-yl]-5-methylpyrimidin-4-yl}-2-methylbenzene-1,4-diamine], the IC50 was < 500 nM.
In the case of `CCN(CC)c1ccc(Nc2cc(C)nc(N3CCN(c4ccc(OC)cc4)C(C)(C)C3)n2)c(C)c1` [Example 15, N4,N4-diethyl-N1-{2-[4-(4-methoxyphenyl)-3,3-dimethylpiperazin-1-yl]-6-methylpyrimidin-4-yl}-2-methylbenzene-1,4-diamine], the IC50 is 500 to 1000 nM.
Consider `CCN(CC)c1cc(C)c(Nc2ccnc(N3CCN(c4ccc(OC)cc4)C(C)(C)C3)n2)cc1C` [Example 16, N4,N4-diethyl-N1-{2-[4-(4-methoxyphenyl)-3,3-dimethylpiperazin-1-yl]pyrimidin-4-yl}-2,5-dimethylbenzene-1,4-diamine], for which the 50% inhibitory concentration (IC50) is < 500 nM.
Under `CCN(CC)c1ccc(Nc2nc(N3CCN(c4ccc(OC)cc4)C(C)(C)C3)ncc2F)c(C)c1` [Example 18, N4,N4-diethyl-N1--{5-fluoro-2-[4-(4-methoxyphenyl)-3,3-dimethylpiperazin-1-yl]pyrimidin-4-yl}-2-methylbenzene-1,4-diamine] stands < 500 nM.
For `CCN(CC)c1ccc(Nc2nc(N3CCN(c4ccc(OC)cc4)C(C)(C)C3)ncc2Cl)c(C)c1` [Example 19, N1-{5-chloro-2-[4-(4-methoxyphenyl)-3,3-dimethylpiperazin-1-yl]pyrimidin-4-yl}-N4,N4-diethyl-2-methylbenzene-1,4-diamine], the IC50 was 500 to 1000 nM.
In the case of `CCN(CC)c1ccc(Nc2nc(N3CCN(c4ccc(OC)cc4)C(C)(C)C3)ncc2Br)c(C)c1` [Example 20, N1-{5-bromo-2-[4-(4-methoxyphenyl)-3,3-dimethylpiperazin-1-yl]pyrimidin-4-yl}-N4,N4-diethyl-2-methylbenzene-1,4-diamine], the IC50 lay within 500 to 1000 nM.
The result for `CCN(CC)c1ccc(Nc2cc(C(=O)OC)nc(N3CCN(c4ccc(OC)cc4)C(C)(C)C3)n2)c(C)c1` [Example 22, methyl 6-{[4-(diethylamino)-2-methylphenyl]amino}-2-[4-(4-methoxyphenyl)-3,3-dimethylpiperazin-1-yl]pyrimidine-4-carboxylate] reads < 500 nM; that for `CCN(CC)c1ccc(Nc2ccnc(N3CCN(c4ccc(OC)c(OC)c4)CC3)n2)c(C)c1` [Example 24, N1-{2-[4-(3,4-dimethoxyphenyl)piperazin-1-yl]pyrimidin-4-yl}-N4,N4-diethyl-2-methylbenzene-1,4-diamine], 1000 to 3000 nM; that for `CCN(CC)c1ccc(Nc2nc(N3CCN(c4ccc(OC)cc4)C(C)(C)C3)ncc2OC)c(C)c1` [Example 25, N4,N4-diethyl-N1-{5-methoxy-2-[4-(4-methoxyphenyl)-3,3-dimethylpiperazin-1-yl]pyrimidin-4-yl}-2-methylbenzene-1,4-diamine], < 500 nM.
On to `CCN(CC)c1ccc(Nc2cc(C(=O)O)nc(N3CCN(c4ccc(OC)cc4)C(C)(C)C3)n2)c(C)c1` [Example 26, 6-[[4-(diethylamino)-2-methylphenyl]amino]-2-[4-(4-methoxyphenyl)-3,3-dimethyl-1-piperazinyl]-4-pyrimidinecarboxylic acid], for which the half-inhibitory concentration (IC50) lay in the range of 500 to 1000 nM.
The result for `CCN(CC)c1ccc(Nc2cc(C(=O)N(C)C)nc(N3CCN(c4ccc(OC)cc4)C(C)(C)C3)n2)c(C)c1` [Example 27, 6-{[4-(diethylamino)-2-methylphenyl]amino}-2-[4-(4-methoxyphenyl)-3,3-dimethylpiperazin-1-yl]-N,N-dimethylpyrimidine-4-carboxamide] reads < 500 nM; that for `CCOc1cc(C)c(Nc2cc(C(=O)OC)nc(N3CCN(c4ccc(OC)cc4)C(C)(C)C3)n2)cc1C(C)C` [Example 28, 6-[(4-ethoxy-5-isopropyl-2-methylphenyl)amino]-2-[4-(4-methoxyphenyl)-3,3-dimethylpiperazin-1-yl]pyrimidine-4-carboxylate methyl], < 500 nM; that for `COc1ccc(N2CCN(c3nccc(Nc4cc(C(C)(C)C)nn4C)n3)CC2(C)C)cc1` [Example 37, N-(3-tert-butyl-1-methyl-1H-pyrazol-5-yl)-2-[4-(4-methoxyphenyl)-3,3-dimethylpiperazin-1-yl]pyrimidin-4-amine], < 500 nM.
For `COc1ccc(N2CCN(c3ncc(F)c(Nc4cc(C(C)(C)C)nn4C)n3)CC2(C)C)cc1` [Example 38, N-(3-tert-butyl-1-methyl-1H-pyrazol-5-yl)-5-fluoro-2-[4-(4-methoxyphenyl)-3,3-dimethylpiperazin-1-yl]pyrimidin-4-amine], the IC50 is < 500 nM.
Under `COc1ccc(N2CCN(c3nccc(Nc4ccc(-n5cccn5)cc4C)n3)CC2(C)C)cc1` [Example 41, 2-[4-(4-methoxyphenyl)-3,3-dimethylpiperazin-1-yl]-N-[2-methyl-4-(1H-pyrazol-1-yl)phenyl]pyrimidin-4-amine] stands 500 to 1000 nM.
Molecule `COc1ccc(N2CCN(c3nccc(Nc4ccc(N5CCC5)cc4C)n3)CC2(C)C)cc1` [Example 43, N-(4-azetidin-1-yl-2-methylphenyl)-2-[4-(4-methoxyphenyl)-3,3-dimethylpiperazin-1-yl]pyrimidin-4-amine] gave a half-maximal inhibitory concentration (IC50) of 500 to 1000 nM.
For `CCCCc1ccc(Nc2ccnc(N3CCN(c4ccc(OC)cc4)C(C)(C)C3)n2)c(C)c1` [Example 44, N-(4-butyl-2-methylphenyl)-2-[4-(4-methoxyphenyl)-3,3-dimethylpiperazin-1-yl]pyrimidin-4-amine], the IC50 lay in the range of 1000 to 3000 nM.
As for `CCOc1cc(C)c(Nc2ccnc(N3CCN(c4ccc(OC)cc4)C(C)(C)C3)n2)cc1C(C)C` [Example 45, N-(4-ethoxy-5-isopropyl-2-methylphenyl)-2-[4-(4-methoxyphenyl)-3,3-dimethylpiperazin-1-yl]pyrimidin-4-amine], the 50% inhibitory concentration (IC50) is < 500 nM.
Molecule `COc1ccc(N2CCN(c3ncc(F)c(Nc4cc(C(C)(C)C)ccc4C)n3)CC2(C)C)cc1F` [Example 88, N-(5-tert-butyl-2-methylphenyl)-5-fluoro-2-[4-(3-fluoro-4-methoxyphenyl)-3,3-dimethylpiperazin-1-yl]pyrimidin-4-amine] displayed a half-inhibitory concentration (IC50) of 500 to 1000 nM.
As for `COc1ccc(N2CCN(c3nc(Nc4cc(C(C)(C)C)ccc4C)cc(C(=O)N(C)CCN(C)C)n3)CC2(C)C)cc1` [Example 93, 6-[(5-tert-butyl-2-methylphenyl)amino]-N-[2-(dimethylamino)ethyl]-2-[4-(4-methoxyphenyl)-3,3-dimethylpiperazin-1-yl]-N-methylpyrimidine-4-carboxamide], the half-maximal inhibitory concentration (IC50) is < 500 nM.
